“And” between values parts separate entries of the source, which are not always exact repeats. Identical values can stand only once.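 Cultured in 96-well plates, cells were exposed to test compound for 48 hours across five concentrations. GI50: concentration for 50% inhibition of growth. TGI marks complete inhibition of growth.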
What was measured:
Assay in all cases: NCI-60 cell line screen, 48 h
LOX IMVI melanoma = system: LOX IMVI melanoma
RXF 393 renal = system: RXF 393 renal
HOP-92 NSCLC = system: HOP-92 NSCLC
HS 578T breast = system: HS 578T breast
HCT-15 colon = system: HCT-15 colon
UO-31 renal = system: UO-31 renal
HCC-2998 colon = system: HCC-2998 colon
PC-3 prostate = system: PC-3 prostate
CCRF-CEM leukemia = system: CCRF-CEM leukemia
SK-MEL-2 melanoma = system: SK-MEL-2 melanoma

SMILES	GI50 (LOX IMVI melanoma)	TGI (LOX IMVI melanoma)	GI50 (RXF 393 renal)	TGI (RXF 393 renal)	GI50 (HOP-92 NSCLC)	TGI (HOP-92 NSCLC)	GI50 (HS 578T breast)	TGI (HS 578T breast)	GI50 (HCT-15 colon)	TGI (HCT-15 colon)	GI50 (UO-31 renal)	TGI (UO-31 renal)	GI50 (HCC-2998 colon)	TGI (HCC-2998 colon)	GI50 (PC-3 prostate)	TGI (PC-3 prostate)	GI50 (CCRF-CEM leukemia)	TGI (CCRF-CEM leukemia)	GI50 (SK-MEL-2 melanoma)	TGI (SK-MEL-2 melanoma)
CN(C)c1ccc(/C=C/C(=O)c2ccc(Nc3nc(Nc4ccc(F)cc4)nc(Nc4ccc(F)cc4)n3)cc2)cc1	19000 nM	50.7 µM	7.84 µM	26.1 µM	4.94 µM	24 µM	14.4 µM	51.9 µM	19400 nM	> 100 µM	15.2 µM	40.4 µM	11 µM	32.5 µM	6.56 µM	80.2 µM	5610 nM	> 100 µM	14.2 µM	52.5 µM
NC(N)=NN=c1c(=O)c2ccccc2c1=O	1580 nM	3.25 µM	13.1 µM	25.9 µM	19.3 µM	34.9 µM	10.1 µM	> 100 µM	1880 nM	3.84 µM	6.81 µM	20.1 µM	14.2 µM	28 µM	12.7 µM	29.8 µM	2140 nM	5.27 µM	20.7 µM	40.1 µM
C[C@@H](Nc1nc(N[C@H](C)C(F)(F)F)nc(-c2cccc(Cl)n2)n1)C(F)(F)F	79800 nM	> 100 µM	23.2 µM	94.7 µM	10.1 µM	63.6 µM	26 µM	> 100 µM	> 100000 nM	> 100 µM	51.3 µM	> 100 µM	66.3 µM	> 100 µM	45.4 µM	> 100 µM	> 100000 nM	> 100 µM	25.6 µM	> 100 µM
COc1cc2c(Oc3ccc(NC(=O)C4(C(=O)Nc5ccc(F)cc5)CC4)cc3F)ccnc2cc1OCCCN1CCOCC1	713 nM	1.95 µM	0.468 µM and 0.661 µM	1.77 µM and 1.9 µM	0.243 µM and 0.0433 µM	1.65 µM and 0.991 µM	2.06 µM and 0.387 µM	–	935 nM and 1030 nM	3.8 µM and 4.04 µM	0.984 µM and 0.654 µM	2.61 µM and 2.04 µM	1.24 µM and 1.31 µM	2.62 µM and 4.31 µM	1.9 µM and 1.23 µM	14.5 µM and > 10 µM	531 nM and 383 nM	–	1.44 µM and 1.63 µM	2.93 µM and 3.74 µM
Nc1nc(=O)n(C2CC(O)C(CO)O2)cc1F (stereo not given)	10 nM	> 100 µM	> 57.8 µM	> 100 µM	1.65 µM	–	55.2 µM	> 100 µM	28400 nM	> 100 µM	–	> 43.3 µM	0.000943 µM	> 26.4 µM	1.47 µM	> 100 µM	2.76 nM	> 100 µM	–	> 100 µM

Source: PubChem BioAssay (NCI)
